This note sets out measurements from US5032588A, “Thiazole lipoxygenase-inhibiting compounds derived from non-steroidal antiinflammatory carboxylic acids” (Abbott Laboratories, priority 1989, dated 1991).

The target of this test is T1, 5-lipoxygenase (Rattus norvegicus, UniProt P12527).
T1 construct: 20,000x g supernatant from homogenized RBL-1 cells; endogenous in cells; host or cells: RBL-1 cells (20,000 x g supernatant of homogenate)
T1 sequence (P12527 1-673): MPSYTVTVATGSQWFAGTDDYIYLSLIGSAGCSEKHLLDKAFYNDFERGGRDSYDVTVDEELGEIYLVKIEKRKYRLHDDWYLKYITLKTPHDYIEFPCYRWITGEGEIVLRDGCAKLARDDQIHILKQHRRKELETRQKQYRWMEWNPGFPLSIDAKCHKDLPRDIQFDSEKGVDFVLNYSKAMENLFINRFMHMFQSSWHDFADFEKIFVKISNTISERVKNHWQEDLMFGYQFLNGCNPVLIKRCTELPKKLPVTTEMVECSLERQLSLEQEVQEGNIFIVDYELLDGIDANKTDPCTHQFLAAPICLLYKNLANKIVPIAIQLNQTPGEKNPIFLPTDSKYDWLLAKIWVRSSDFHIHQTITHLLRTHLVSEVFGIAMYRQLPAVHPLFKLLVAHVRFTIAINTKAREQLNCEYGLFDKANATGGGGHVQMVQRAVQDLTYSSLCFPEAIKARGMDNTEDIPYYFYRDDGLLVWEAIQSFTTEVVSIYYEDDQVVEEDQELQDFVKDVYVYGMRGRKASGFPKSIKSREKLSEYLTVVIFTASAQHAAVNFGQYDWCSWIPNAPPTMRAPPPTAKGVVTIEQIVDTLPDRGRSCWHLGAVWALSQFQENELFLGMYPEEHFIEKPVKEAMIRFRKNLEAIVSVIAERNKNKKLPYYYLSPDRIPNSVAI
Put plainly: Inhibition of 5-lipoxygenase activity (20,000x g supernatant from homogenized RBL-1 cells). The format is biochemical. The note with it: linear regression of percentage inhibition versus log inhibitor concentration, read-out: IC50 (concentration of compound producing 50% enzyme inhibition). As for the experimental part:
Inhibition of 5-lipoxygenase activity was determined using the 20,000x g supernatant from homogenized RBL-1 cells in a similar manner as that described by Dyer and coworkers (Dyer, R. D.; Haviv, F.; Hanel, A. M.; Bornemier, D. A.; Carter, G. W. Fed. Proc., Fed. Am. Soc. Exp. Biol., 43:1462A, (1984).) IC50 values (concentration of compound producing 50% enzyme inhibition) were calculated by linear regression analysis of percentage inhibition versus log inhibitor concentration plots.

Structures are written as SMILES.

Regarding `CCC(c1ccc(CC(C)C)cc1)c1nc(O)c(-c2ccccc2)s1` (centres unmarked) [Example 4, 2-[1-(4-isobutylphenyl)propyl]-5-phenyl-4-hydroxythiazole], the IC50 is 0.06 µM.

As for `COc1ccc2cc(C(C)c3sc(-c4ccccc4)nc3O)ccc2c1` (centres unmarked) [Example 5, 5-[1-(6-methoxy-2-naphthyl)ethyl]-2-phenyl-4-hydroxythiazole], the IC50 was 0.9 µM.

On to `CC(C)Cc1ccc(Cc2nc(O)c(-c3ccccc3)s2)cc1` [Example 3, 2-[(4-isobutylphenyl)methyl]-5-phenyl-4-hydroxythiazole], for which the IC50 was determined as 1.1 µM.

For `COc1ccc2cc(C(C)c3nc(O)c(-c4ccccc4)s3)ccc2c1` (centres unmarked) [Example 1, 2-[1-(6-methoxy-2-naphthyl)ethyl]-5-phenyl-4-hydroxythiazole], the IC50 stood at 0.42 µM.

For the compound `CC(C)Cc1ccc(C(C)c2nc(O)c(-c3ccccc3)s2)cc1` (centres unmarked) [Example 2, 2-[1-(4-isobutylphenyl)ethyl]-5-phenyl-4-hydroxy-thiazole], the IC50 was determined as 0.71 µM.
